Test results as given in patent US20240041733A1, “DENTAL CARE COMPOSITION AND METHOD OF PROMOTING CALCIFICATION IN LIVING BODY TISSUE” (KINJIRUSHI CO., LTD., priority 2020, published 2024).
Entries after “also recorded” stand apart in the source; their conditions may differ.

Experiments:
[1] = test system: Human odontoblast (HOB) cells; assay: Evaluation of calcification promoting action using human odontoblasts (Alizarin red and von Kossa staining); assay type: cell-based; conditions: for calcification promoting action: calcification medium with additive, Alizarin red / von Kossa staining; for relative calcification promoting action (comparison among compounds): compared by concentration of particularly high action and by extent of staining at 50 μM
Description: 1. Cultivation of Human Odontoblast (Human Odontoblast (HOB) Cells)
HOB cells are seeded in a T75 flask and cultivated until confluency was achieved. A culture medium (hereinafter referred to as “regular medium”) was prepared by adding 10% of fetal bovine serum (FBS) (Life Technologies Ltd.; Product No. 10437-028), 1% of penicillin-streptomycin (Life Technologies Ltd.; Product No. 15140-122), 1% of amphotericin B (Sigma-Aldrich, Product No. A2942-100ML) to MEMα (Life Technologies Ltd.; Product No. 12561-049, 12561-056). Cultivation was performed under an environment with a temperature of 37° C. and 5% of CO2.
Then the HOB Cells were seeded on an adherent cell cultivation plate (Sumitomo Bakelite Co., Ltd) such that the cell density per 1 well was 1.78 to 2.56×10^5 cells/mL, and cultivated under the same environment. As the adherent cell cultivation plate, plates having 6 to 96 wells were appropriately used.
Four days later, each culture medium was changed from the regular medium to a calcification medium, or to a culture medium (hereinafter, referred to as “additive containing calcification medium”) prepared by adding additional components shown in the following Table 4 and Table 5 to the calcification medium so as to achieve the concentrations shown in Table 4 and Table 5. The calcification medium is prepared by adding L (+)-ascorbic acid (Wako Pure Chemical Industries, Ltd. (currently Fujifilm Wako Pure Chemical Corporation), Product No. 016-04805) to the aforementioned regular mediums such that the concentration in the calcification medium (that is, the final concentration) was 50 μg/mL, and by adding β-glycerophosphoric acid (Fujifilm Wako Pure Chemical Corporation, Product No. 191-02042) to the aforementioned regular mediums such that the concentration in the calcification medium (that is, the final concentration) is 10 mM.
Then, the cultivation was performed under the environment at 37° C. with 5% of CO2 for 21 or 28 days while exchanging the calcification medium or the additive containing calcification medium twice a week. Then the following staining was performed.
Alizarin red staining and von Kossa staining were performed to evaluate calcification promoting effect.
Each well was washed twice using Dulbecco's phosphate buffered saline (DPBS) (Life Technologies Ltd.; Product No. 14190-144) the amount of which was equal to the specified amount of culture medium in the adherent cell cultivation plate. After removing the DPBS from each well, 4% paraformaldehyde phosphate buffer solution (Fujifilm Wako Pure Chemical Corporation, Product No. 163-20145), the amount of which was equal to a half the amount of the specified amount of the culture medium, was introduced to each well, and each well was left for five minutes at a room temperature.
Then, each well was washed twice using the DPBS the amount of which was equal to the specified amount of the culture medium. After removing the DPBS from each well, Alizarin red staining solution, the amount of which was equal to a half the amount of the specified amount of the culture medium, was introduced to each well, and each well was left for ten minutes. The Alizarin red staining solution was prepared by dissolving a commercially available staining solution (Product name: “Alizarin red S”, Wako Pure Chemical Industries, Ltd. (currently Fujifilm Wako Pure Chemical Corporation), Product No. 011-01192) with ultrapure water (Milli-Q (registered trademark) water), and the pH was adjusted to be within a range from 6.36 to 6.40 using ammonium hydroxide solution.
Each well was then washed five times using the ultrapure water (same as above), the amount of which was equal to the specified amount of the culture medium.
Each well was washed three times using the Dulbecco's phosphate buffered saline (DPBS) (same as above) the amount of which was equal to the specified amount of the culture medium in the adherent cell cultivation plate.

[2] = used in human, dental clinical practices; cited from earlier work

C[S+]([O-])CCCCCCCCN=C=S (stereo not shown) [8-MSITC, 8-methylsulfinyloctyl isothiocyanate]
calcification promoting action ([1]; HOB cells, 21 or 28 days): possess calcification promoting action | relative calcification promoting action (comparison among compounds) [1]: particularly high; also recorded: about the same as the calcification promoting action of the 4-MSITC

S=C=NCCc1ccccc1 [PITC, phenethyl isothiocyanate]
concentration at which particularly high calcification promoting action was observed ([1]; HOB cells, 21 or 28 days, staining): ≥ 500 µM | calcification promoting action ([1]; HOB cells, 21 or 28 days): possess calcification promoting action

C=CCN=C=S [AITC, allyl isothiocyanate, reference compound]
calcification promoting action ([1]; HOB cells, 21 or 28 days): completely no calcification promoting action | calcification action ([1]; range up to 500 μM): not exhibited

[Ca+2].[OH-].[OH-] [calcium hydroxide]
normal duration of time until calcification occurs [2]: three months

C[S+]([O-])CCCCN=C=S (stereo not shown) [4-MSITC, 4-methylsulfinylbutyl isothiocyanate]
calcification promoting action ([1]; HOB cells, 21 or 28 days): possess calcification promoting action | relative calcification promoting action (comparison among compounds) [1]: particularly high

C[S+]([O-])CCCCN (stereo not shown) [4-MS amine, 4-methylsulfinylbutyl amine, reference compound]
calcification promoting action ([1]; HOB cells, 21 or 28 days): completely no calcification promoting action

CCN[C@H]1C[C@H](C)S(=O)(=O)c2sc(S(N)(=O)=O)cc21 [dorzolamide, reference compound]
effect on calcification when used with 6-methylsulfinylhexyl isothiocyanate ([1]; dorzolamide, inhibitor of carbonic anhydrase, used with 6-MSITC): calcification is inhibited

CS(=O)(=O)CCCCCCN=C=S [6-MSFITC, 6-methylsulfonylhexyl isothiocyanate]
calcification promoting action ([1]; HOB cells, 21 or 28 days): possess calcification promoting action | relative calcification promoting action (comparison among compounds) [1]: particularly high; also recorded: higher calcification promoting action than the 4-MSITC
